Legend:
Clostridium difficile [1] = assay: Example 3: Colombia base media with a chromogenic beta-glucosidase substrate and 300 mg/l ammoniacal iron citrate; format: cell-based; design: key to diffusion of the coloration: *: diffusion of trie coloration; details: Clostridium difficile strains, 48 h; for Co = coloration / Gr = growth: Colombia base, 300 mg/l ammoniacal iron citrate
Clostridium difficile [2] = assay: Example 2: egg yolk base media each containing a chromogenic beta-glucosidase substrate, growth and coloration of strains; format: cell-based; details: for Co = coloration / Gr = growth: Clostridium difficile strains, 48 h, egg yolk base; for sensitivity with respect to Clostridium difficile: Example 2, 48 h
Other Clostridium = format: cell-based, Clostridium spp
Clostridium difficile [3] = assay: Example 5: two prototype media for C. difficile, % of strains producing a coloration; format: cell-based
Description: (§1) 107 strains were tested on two prototype media for C. difficile, the compositions of which are the following (per liter):
(§2) The inoculation is carried out from precultures prepared for 48 h at 37° C. under anaerobic conditions.
(§3) A suspension in physiological saline at 0.5 McF is prepared and then the strains are inoculated using a 10 μl calibrated loop.
(§4) The readings are carried out after incubation for 24 and 48 hours at 37° C.

[4] = tested on: strains other than Clostridium difficile; assay: Example 5: selectivity of the medium, growth of strains other than Clostridium difficile; format: cell-based
Description: as §1, §2, §3, §4

[5] = tested on: C. difficile strains 042, 308, 169, 187; assay: Example 4: five CHE-beta-glucoside media with varying esculin and glucose, colony diameter and coloration strength; format: cell-based, Clostridium difficile; details: Example 4, according to medium 2
Description: Five media, each containing 48.10 g/l of Columbia base, 2.5 g/l of sodium taurocholate, 200 mg/l of ammoniacal iron citrate, 100 mg/l of CHE-beta-glucoside, and also an inhibitor system normally used in the media for Clostridium difficile, based on D-cycloserine, and varying concentrations of esculin and glucose (see following table):
as §2, §3
The readings are carried out after incubation for 24 hours at 37° C.
For Growth: • The values indicated correspond to the diameter of the colonies.
For Coloration Strength: • 1 corresponds to the presence of a clear coloration of weak strength, • 1.5 corresponds to the presence of a coloration that is intermediate between colorations 1 and 2, • 2 corresponds to the presence of a clear coloration of medium strength, • 2.5 corresponds to the presence of a coloration that is intermediate between colorations 2 and 3, • 3 corresponds to the presence of a strong coloration.

[6] = substrate 300 mg/l +500 mg/l of ammoniacal iron citrate
[7] = substrate 300 mg/l +50 mg of ammoniacal iron citrate

5-bromo-3-indoxyl-β-glucoside [Blue-β-glucoside]
diffusion of the coloration (Clostridium difficile [1]; Blue substrate 300 mg/l): * | Co = coloration (Clostridium difficile [1]; Blue substrate 300 mg/l): 10/10 | Gr = growth (Clostridium difficile [1]; Blue substrate 300 mg/l): 10/10

5-bromo-6-chloro-3-indoxyl-β-glucoside [Magenta-β-glucoside]
Co = coloration (Clostridium difficile [2]; substrate 80 mg/l): 16/18 | Gr = growth (Clostridium difficile [2]; substrate 80 mg/l): 18/28 | sensitivity with respect to Clostridium difficile (Clostridium difficile [2]): good sensitivity | Co = coloration (Other Clostridium): 6/17 | Gr = growth (Other Clostridium): 17/17

OC[C@H]1O[C@@H](Oc2cccc3cccnc23)[C@H](O)[C@@H](O)[C@@H]1O [8-Hydroxyquinoline-β-glucoside, 8-hydroxyquinoline-β-glucoside]
Co = coloration (Clostridium difficile [1]; substrate 150 mg/l): 5/10 | Gr = growth (Clostridium difficile [1]; substrate 150 mg/l): 10/10

O=C1c2ccccc2C(=O)c2c1ccc(O[C@@H]1O[C@H](CO)[C@@H](O)[C@H](O)[C@H]1O)c2O [Alizarin-β-glucoside, 1,2-dihydroxyanthraquinone-β-glucoside]
Co = coloration (Clostridium difficile [2]; substrate 50 mg/l): 18/22 | Gr = growth (Clostridium difficile [2]; substrate 50 mg/l): 22/28 | sensitivity with respect to Clostridium difficile (Clostridium difficile [2]): good sensitivity | Co = coloration (Other Clostridium): 2/16 | Gr = growth (Other Clostridium): 16/17 | Co = coloration (Clostridium difficile [1]; substrate 50 mg/l): 8/10 | Gr = growth (Clostridium difficile [1]; substrate 50 mg/l): 10/10

O=c1oc2cc(O)c(O[C@@H]3O[C@H](CO)[C@@H](O)[C@H](O)[C@H]3O)cc2c2c1CCCC2 [CHE-β-glucoside, 3,4-cyclohexenoesculetin-β-glucoside]
Co = coloration (Clostridium difficile [2]; [6]): 20/21 | Gr = growth (Clostridium difficile [2]; [6]): 21/28 | sensitivity with respect to Clostridium difficile (Clostridium difficile [2]): good sensitivity | Co = coloration (Other Clostridium): 6/17 | Gr = growth (Other Clostridium): 17/17 | sensitivity with respect to Clostridium difficile (Clostridium difficile [3]; Example 5, from 24 h onward): good sensitivity | strains of Clostridium difficile revealed (Clostridium difficile [3]; from 24 h onward, with a minimum of false positives): ~90% | specificity with respect to Clostridium difficile [4]: good specificity

O=c1ccc2cc(O[C@@H]3O[C@H](CO)[C@@H](O)[C@H](O)[C@H]3O)c(O)cc2o1 [esculin, esculetin-β-glucoside]
effect on the strength of the coloration [5]: positive effect

dihydroxyflavone-β-glucoside [DHF-β-glucoside]
Co = coloration (Clostridium difficile [2]; [7]): 20/28 | Gr = growth (Clostridium difficile [2]; [7]): 28/28 | Co = coloration (Other Clostridium): 3/12 | Gr = growth (Other Clostridium): 12/14 | Co = coloration (Clostridium difficile [1]; substrate 300 mg/l): 10/10 | Gr = growth (Clostridium difficile [1]; substrate 300 mg/l): 10/10
